Results reported in ChEMBL document CHEMBL1144133, “Novel highly oxygenated bisabolane sesquiterpenes from Cremanthodium discoideum” (1999).

Assays:
Assay type in all cases: functional
Bacillus = test: Antibacterial activity against Bacillus acidilatici MCCB 44102 at 100 ug/ml after 24 hrs by paper-disk method
Pseudomonas aeruginosa = test: Antibacterial activity against Bacillus aeruginosus MCCB 10104 at 100 ug/ml after 24 hrs by paper-disk method
Bacillus subtilis = test: Antibacterial activity against Bacillus subtilis MCCB 26501 at 100 ug/ml after 24 hrs by paper-disk method

SMILES	Activity (Bacillus) [mm]	Activity (Pseudomonas aeruginosa) [mm]	Activity (Bacillus subtilis) [mm]
C=C([C@@H](C[C@H](O)C(C)(C)OC)OC(=O)/C(C)=C\C)[C@@H]1C[C@@H](Cl)[C@](C)(O)[C@H](OC(C)=O)[C@@H]1OC(=O)/C(C)=C\C	10	<9	13
O=C(N[C@H](CO)[C@H](O)c1ccc([N+](=O)[O-])cc1)C(Cl)Cl [CHLORAMPHENICOL]	13	13	13
